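Tested at 5 concentrations; 48 h exposure; 96-well plates; endpoints linearly interpolated, else capped at highest concentration. GI50 marks 50% less growth. Definition used: TGI = concentration required for complete inhibition of growth.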
Columns and labels:
Assay in all cases: NCI-60 cell line screen, 48 h
A498 renal = test system: A498 renal
CCRF-CEM leukemia = test system: CCRF-CEM leukemia
HOP-62 NSCLC = test system: HOP-62 NSCLC
HT29 colon = test system: HT29 colon
K-562 leukemia = test system: K-562 leukemia
KM12 colon = test system: KM12 colon
NCI-H23 lung = test system: NCI-H23 lung
NCI-H522 lung = test system: NCI-H522 lung
SF-268 CNS = test system: SF-268 CNS
TK-10 renal = test system: TK-10 renal

SMILES	TGI (A498 renal) [µM]	TGI (CCRF-CEM leukemia) [µM]	TGI (HOP-62 NSCLC) [µM]	TGI (HT29 colon) [µM]	TGI (K-562 leukemia) [µM]	TGI (KM12 colon) [µM]	TGI (NCI-H23 lung) [µM]	TGI (NCI-H522 lung) [µM]	TGI (SF-268 CNS) [µM]	TGI (TK-10 renal) [µM]	GI50 (A498 renal) [µM]	GI50 (CCRF-CEM leukemia) [µM]	GI50 (HOP-62 NSCLC) [µM]	GI50 (HT29 colon) [µM]	GI50 (K-562 leukemia) [µM]	GI50 (KM12 colon) [µM]	GI50 (NCI-H23 lung) [µM]	GI50 (NCI-H522 lung) [µM]	GI50 (SF-268 CNS) [µM]	GI50 (TK-10 renal) [µM]
S=c1nc(-c2ccnc(-c3nc(=S)[nH][nH]3)c2)[nH][nH]1	> 100	> 100	> 100	> 100	> 100	> 100	> 100	> 100	> 100	> 100										
CC(=O)Oc1ccc2c(c1)CC[C@@H]1C2CC[C@]2(C)C(=O)NC(=O)CC12 (some centres not stated)	> 100	> 100	> 100	> 100	> 100	> 100	> 100	> 100	> 100	> 100										
Nc1[nH]c(=O)ncc1CO	> 100	> 100	> 100	> 100	> 100	> 100	> 100	> 100	> 100	> 100	> 100	> 100	> 100	> 100	> 100	> 100	> 100	> 100	> 100	> 100
Cc1nc(N)nc2ccccc12	> 100	> 100	> 100	> 100	> 100	> 100	> 100	> 100	> 100	> 100										
O=c1c2ccccc2oc2ccc(OCCCCCCN3CCCCCC3)cc12	6.49	12		6.57	4.6	11.5	11.7	11.5	20	17.3	2.49	3.17		1.91	1.96	3.2	3.1	2.82	4.35	3.94
COC(=O)/C(=N\NC(N)=S)C(C#N)c1ccccc1 (configuration not stated)	> 100	> 100	> 100	> 100	> 100	> 100	> 100	> 100	> 100	> 100										
Cc1cc(Cl)ccc1Nc1nc(C(F)(F)F)ccc1C(=O)N1CCN(c2cccc(Cl)c2)CC1	> 100	> 100	> 100	> 100	> 100	> 100	> 100	> 100	> 100	> 100	37.1	> 100	> 100	46.1	19.7	> 100	> 100	> 100	> 100	> 100
CC1=NN(C(=O)c2ccccc2O)C(=O)/C1=C/c1cccc([N+](=O)[O-])c1	0.801	> 100		> 100	> 100	> 100	> 31.8	54.6	> 100	> 100										

— PubChem BioAssay (NCI)
